According to ChEMBL document CHEMBL1153384, “Synthesis, antimalarial activity, and preclinical pharmacology of a novel series of 4'-fluoro and 4'-chloro analogues of amodiaquine. Identification of a suitable "back-up" compound for N-tert-butyl isoquine” (J Med Chem, 2009):

Key:
[1] = Drug metabolism in cannulated Wistar rat assessed as biliary excretion of [3H]labeled drug level at 54 umol/kg, iv after 5 hrs; assay type: ADME, organism-based, Bile; conditions: in vivo
[2] = Partition coefficient, log P of the compound; assay type: physicochemical; conditions: octanol/water
[3] = tested on: Rattus norvegicus; assay: Biodistribution in Wistar rat assessed as remaining [3H]labeled drug level at 54 umol/kg, iv after 24 hrs; assay type: ADME, organism-based; conditions: in vivo
[4] = target: T1, Cytochrome P450 1A2 (Homo sapiens, UniProt P05177); assay: Inhibition of human CYP1A2; assay type: ADME
T1 sequence (P05177 whole entry): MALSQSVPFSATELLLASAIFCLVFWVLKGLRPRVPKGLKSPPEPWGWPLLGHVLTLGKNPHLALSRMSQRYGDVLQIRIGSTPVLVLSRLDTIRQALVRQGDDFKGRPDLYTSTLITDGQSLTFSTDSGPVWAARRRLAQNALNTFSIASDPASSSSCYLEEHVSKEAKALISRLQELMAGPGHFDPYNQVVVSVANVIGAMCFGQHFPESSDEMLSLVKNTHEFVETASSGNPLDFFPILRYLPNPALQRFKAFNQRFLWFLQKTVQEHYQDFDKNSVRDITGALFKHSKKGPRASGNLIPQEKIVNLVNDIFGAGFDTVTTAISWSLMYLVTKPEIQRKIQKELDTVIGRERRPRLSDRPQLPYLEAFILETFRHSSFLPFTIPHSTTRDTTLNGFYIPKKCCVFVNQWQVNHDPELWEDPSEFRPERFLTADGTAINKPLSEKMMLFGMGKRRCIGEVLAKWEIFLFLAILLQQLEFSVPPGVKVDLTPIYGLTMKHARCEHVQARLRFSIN

[5] = tested on: Zone of skin; assay: Biodistribution in cannulated Wistar rat skin assessed as [3H]labeled drug level at 54 umol/kg, iv after 5 hrs; assay type: ADME, organism-based; conditions: in vivo
[6] = tested on: Plasmodium falciparum; assay: Antimalarial activity against […] Plasmodium falciparum PH3; assay type: functional, organism-based
[7] = Toxicity against Wistar rat hepatocytes after 6 hrs by trypan blue exclusion method; assay type: cell-based, Hepatocyte; conditions: read-out: TC50
[8] = Toxicity in po dosed mouse assessed as drug level causing no observed adverse effects administered as once daily for 4 days; assay type: organism-based; conditions: in vivo, read-out: Activity
[9] = tested on: Heme; assay: Binding affinity to heme assessed as binding constant for stepwise binding of 2 equivalent of drug to 1 molecule of heme in presence of 40% DMSO by UV-visible spectroscopy

## CC(C)(C)NCc1cc(Nc2ccnc3cc(Cl)ccc23)ccc1F
[1]
  Activity: 9.16%
[2]
  logP: 4.74
[3]
  Activity: 14.76%
[4]
  IC50: 8.8 µM
[5]
  Drug uptake: 12.44 %ID
[6]
  IC50: 0.0258 µM
[7]
  CC50 at 6 h: 385 µM
[8]
  NOAEL at 96 h: 100 mg/kg
[9]
  log Ks: 5.45
